Earlier results on 1 compound are cited in patent US8071125B2, “Transdermal patch containing isosorbide dinitrate and bisoprolol” (Beijing Kangbeide Pharmaceutical Technology Development …, priority 2005, dated 2011).

The subject of this series is Patients with Primary Hypertension. To be noted: oral administration.

Each structure is given as a SMILES string.

As to `CC(C)NCC(O)COc1ccc(COCCOC(C)C)cc1` (stereo not shown) [Bisoprolol], the “average reduction of the heart rate after the treatment” value is listed as 15.1%.
